In patent US8959984B2, “Proteome-wide quantification of small molecule binding to cellular target proteins” (priority 2007, dated 2015):
Read-outs that look alike come from different tables or passages of the source.

Key:
[1] = biological target: T1, PKACb (PRKACB, IPI00376119) (Homo sapiens, UniProt P22694); experiment: binding to VI16742 beads (HeLa lysate, SILAC MS)
T1 construct: endogenous in cells; host or cells: HeLa S3
Description: (§1) In an alternative implementation of the chemical proteomic approach according to the invention, the broadly-selective pyrido[2,3-d]pyrimidine-based kinase inhibitor VI16742 has been used for affinity capture (FIG. 10a). […] As shown by gene ontology analysis, the corresponding molecular functions were highly over-represented in proteins specifically retained by the inhibitor resin (FIG. 10b).

[2] = biological target: T2, MRCKb (CDC42BPB, IPI00477763) (Homo sapiens, UniProt Q9Y5S2); experiment: binding to VI16742 beads (HeLa lysate, SILAC MS)
T2 construct: endogenous in cells; host or cells: HeLa S3
T2 sequence (Q9Y5S2 whole entry): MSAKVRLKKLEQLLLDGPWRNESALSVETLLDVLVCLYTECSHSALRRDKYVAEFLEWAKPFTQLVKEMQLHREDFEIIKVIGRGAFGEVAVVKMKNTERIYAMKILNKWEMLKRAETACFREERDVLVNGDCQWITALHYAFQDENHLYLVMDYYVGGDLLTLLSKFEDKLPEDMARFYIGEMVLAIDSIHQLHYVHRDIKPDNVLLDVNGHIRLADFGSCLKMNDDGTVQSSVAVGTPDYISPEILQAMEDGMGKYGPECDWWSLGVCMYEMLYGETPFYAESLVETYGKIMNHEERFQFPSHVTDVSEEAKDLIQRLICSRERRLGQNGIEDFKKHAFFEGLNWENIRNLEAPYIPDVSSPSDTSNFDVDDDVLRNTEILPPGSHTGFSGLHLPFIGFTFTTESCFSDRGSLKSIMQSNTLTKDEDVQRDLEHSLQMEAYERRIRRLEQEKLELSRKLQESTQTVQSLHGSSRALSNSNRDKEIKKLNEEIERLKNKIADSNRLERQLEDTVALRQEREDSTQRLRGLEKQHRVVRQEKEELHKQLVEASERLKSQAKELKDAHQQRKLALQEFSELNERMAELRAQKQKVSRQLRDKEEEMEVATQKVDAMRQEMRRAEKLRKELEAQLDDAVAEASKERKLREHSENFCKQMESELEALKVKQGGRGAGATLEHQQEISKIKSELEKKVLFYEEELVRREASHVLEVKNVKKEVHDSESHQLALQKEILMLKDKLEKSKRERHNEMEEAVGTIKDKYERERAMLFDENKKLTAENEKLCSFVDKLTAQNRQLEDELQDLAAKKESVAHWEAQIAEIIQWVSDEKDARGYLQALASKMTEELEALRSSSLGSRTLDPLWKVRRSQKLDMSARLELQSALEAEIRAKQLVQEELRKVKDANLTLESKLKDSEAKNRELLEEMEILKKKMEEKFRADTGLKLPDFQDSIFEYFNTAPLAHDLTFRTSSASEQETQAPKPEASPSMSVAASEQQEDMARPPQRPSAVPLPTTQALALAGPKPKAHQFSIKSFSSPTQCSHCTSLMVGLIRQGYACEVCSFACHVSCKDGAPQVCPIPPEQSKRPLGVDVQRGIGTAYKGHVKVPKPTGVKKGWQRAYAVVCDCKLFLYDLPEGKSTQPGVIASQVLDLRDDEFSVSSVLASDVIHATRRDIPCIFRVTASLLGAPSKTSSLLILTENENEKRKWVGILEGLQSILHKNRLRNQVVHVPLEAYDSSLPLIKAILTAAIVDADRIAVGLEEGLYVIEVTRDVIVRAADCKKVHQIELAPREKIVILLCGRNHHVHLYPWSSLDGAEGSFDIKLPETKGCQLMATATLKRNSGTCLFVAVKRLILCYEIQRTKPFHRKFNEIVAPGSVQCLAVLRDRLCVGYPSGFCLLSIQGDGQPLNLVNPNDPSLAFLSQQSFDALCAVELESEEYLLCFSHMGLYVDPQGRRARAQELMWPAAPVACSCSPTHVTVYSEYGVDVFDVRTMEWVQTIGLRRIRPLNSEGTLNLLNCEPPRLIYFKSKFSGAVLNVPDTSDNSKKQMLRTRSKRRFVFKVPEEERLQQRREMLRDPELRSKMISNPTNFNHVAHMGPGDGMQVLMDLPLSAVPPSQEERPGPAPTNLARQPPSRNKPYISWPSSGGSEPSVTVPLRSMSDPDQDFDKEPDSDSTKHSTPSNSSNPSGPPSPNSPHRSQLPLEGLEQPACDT
Description: as §1

[3] = biological target: T3, NT5DC1 (IPI00177965) (Homo sapiens, UniProt Q5TFE4); experiment: binding to VI16742 beads (HeLa lysate, SILAC MS)
T3 construct: endogenous in cells; host or cells: HeLa S3 cell lysate
T3 sequence (Q5TFE4 1-455): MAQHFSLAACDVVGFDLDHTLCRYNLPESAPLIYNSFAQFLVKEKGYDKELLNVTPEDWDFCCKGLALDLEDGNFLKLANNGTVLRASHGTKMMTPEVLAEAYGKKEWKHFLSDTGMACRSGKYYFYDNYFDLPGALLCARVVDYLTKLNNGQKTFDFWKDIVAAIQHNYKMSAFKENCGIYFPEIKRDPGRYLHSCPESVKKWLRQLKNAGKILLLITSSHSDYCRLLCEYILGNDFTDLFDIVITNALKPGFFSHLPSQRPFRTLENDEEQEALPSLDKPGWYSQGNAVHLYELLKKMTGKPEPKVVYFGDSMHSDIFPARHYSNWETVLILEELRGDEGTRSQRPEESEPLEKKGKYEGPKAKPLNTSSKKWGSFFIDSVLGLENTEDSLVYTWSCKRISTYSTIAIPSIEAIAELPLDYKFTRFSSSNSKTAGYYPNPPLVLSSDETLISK

[4] = biological target: T4, ACAD10 (Homo sapiens, UniProt Q6JQN1)
T4 sequence (Q6JQN1 1-1059): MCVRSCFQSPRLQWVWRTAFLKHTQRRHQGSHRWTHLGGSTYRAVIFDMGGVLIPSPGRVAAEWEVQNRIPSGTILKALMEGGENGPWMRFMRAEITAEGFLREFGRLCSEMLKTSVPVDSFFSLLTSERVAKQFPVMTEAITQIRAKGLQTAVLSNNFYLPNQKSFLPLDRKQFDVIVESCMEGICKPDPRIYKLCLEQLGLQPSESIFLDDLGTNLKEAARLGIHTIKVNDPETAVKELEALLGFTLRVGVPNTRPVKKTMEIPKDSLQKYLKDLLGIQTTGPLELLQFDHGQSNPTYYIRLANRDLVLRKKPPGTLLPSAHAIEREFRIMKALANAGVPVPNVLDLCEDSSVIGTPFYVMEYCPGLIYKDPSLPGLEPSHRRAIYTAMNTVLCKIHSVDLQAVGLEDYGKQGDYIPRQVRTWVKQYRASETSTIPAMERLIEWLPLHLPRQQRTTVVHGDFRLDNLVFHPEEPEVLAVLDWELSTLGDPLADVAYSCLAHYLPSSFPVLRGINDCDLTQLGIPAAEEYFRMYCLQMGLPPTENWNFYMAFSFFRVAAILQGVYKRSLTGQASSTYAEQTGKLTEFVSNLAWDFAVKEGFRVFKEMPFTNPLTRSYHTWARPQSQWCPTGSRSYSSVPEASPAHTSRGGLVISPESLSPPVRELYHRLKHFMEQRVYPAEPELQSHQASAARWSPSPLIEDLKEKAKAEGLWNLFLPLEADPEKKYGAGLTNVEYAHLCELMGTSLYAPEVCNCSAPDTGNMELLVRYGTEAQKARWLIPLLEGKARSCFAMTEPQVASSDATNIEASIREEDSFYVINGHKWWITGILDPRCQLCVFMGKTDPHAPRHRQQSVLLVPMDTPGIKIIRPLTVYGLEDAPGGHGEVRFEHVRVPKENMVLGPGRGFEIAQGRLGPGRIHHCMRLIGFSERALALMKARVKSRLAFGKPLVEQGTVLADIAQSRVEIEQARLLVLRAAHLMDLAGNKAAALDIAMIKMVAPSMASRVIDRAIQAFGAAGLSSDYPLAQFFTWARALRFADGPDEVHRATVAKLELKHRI

[5] = biological target: BRD3 (Homo sapiens, UniProt Q15059); experiment: binding to immobilized V16742 (IVA1/IVA2, HeLa lysate, MS)
Sequence of BRD3 (Q15059 whole entry): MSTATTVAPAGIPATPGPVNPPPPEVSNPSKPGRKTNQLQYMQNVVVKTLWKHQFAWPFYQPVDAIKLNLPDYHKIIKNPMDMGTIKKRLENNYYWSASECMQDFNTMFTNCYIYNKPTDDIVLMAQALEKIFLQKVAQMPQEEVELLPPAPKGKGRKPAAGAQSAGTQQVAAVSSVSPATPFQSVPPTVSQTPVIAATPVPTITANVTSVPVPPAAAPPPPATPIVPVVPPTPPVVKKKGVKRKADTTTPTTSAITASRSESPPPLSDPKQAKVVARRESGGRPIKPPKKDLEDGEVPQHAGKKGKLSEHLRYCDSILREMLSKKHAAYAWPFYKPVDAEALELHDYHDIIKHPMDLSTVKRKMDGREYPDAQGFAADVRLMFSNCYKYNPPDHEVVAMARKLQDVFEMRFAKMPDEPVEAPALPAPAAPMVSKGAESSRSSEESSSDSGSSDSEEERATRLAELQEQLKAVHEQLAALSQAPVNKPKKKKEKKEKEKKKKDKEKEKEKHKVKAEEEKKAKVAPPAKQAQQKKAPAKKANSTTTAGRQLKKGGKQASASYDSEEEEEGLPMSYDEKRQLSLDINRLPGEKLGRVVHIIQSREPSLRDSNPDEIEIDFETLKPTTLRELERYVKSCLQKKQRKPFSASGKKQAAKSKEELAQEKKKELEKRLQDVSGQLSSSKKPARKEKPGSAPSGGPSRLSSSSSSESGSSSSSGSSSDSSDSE

[6] = control beads vs first incubation

CC(C)n1c(=O)ccc2cnc(Nc3ccc(OCCN)cc3)nc21 [V16742]
rAVERAGE (CTRL/1 INC) [1, 6]: 0.01
Ki ([1]; immobilized VI16742): 390 µM
rAVERAGE (2 INC/1 INC) ([1]; second vs first incubation): 0.88
r (3 MG/1 MG LYSATE) ([2]; 3 mg vs 1 mg lysate): 2.35
r (5 h/2.5 h INC. TIME) ([2]; 5 h vs 2.5 h incubation time): 1.34
rAVERAGE (CTRL/1 INC) [2, 6]: 0.06
Ki ([2]; immobilized VI16742): 301 µM
rAVERAGE (2 INC/1 INC) ([2]; second vs first incubation): 0.85
rAVERAGE (CTRL/1 INC) [3, 6]: 0.07
Ki ([3]; immobilized VI16742): 94.8 µM
rAVERAGE (2 INC/1 INC) ([3]; second vs first incubation): 0.65

COc1cc2ncnc(Nc3ccc(F)c(Cl)c3)c2cc1OCCCN1CCOCC1 [gefitinib]
rAVERAGE (10 nM/0 nM Gef.) [4]: 1.17
rAVERAGE (100 nM/0 nM Gef.) [4]: 0.86
rAVERAGE (1000 nM/0 nM Gef.) [4]: 1.07
rAVERAGE (10000 nM/0 nM Gef.) [4]: 0.24

CC(C)n1c(=O)ccc2cnc(Nc3ccc(OCCN)cc3)nc21 [compound 16742]
Percent bound at 1.87 μM 16742 conc ([5]; EXPERIMENT 1): 0.00%
Percent bound at 8.74 μM 16742 conc ([5]; EXPERIMENT 1): 0.00%
Percent bound at 52 μM 16742 conc ([5]; EXPERIMENT 1): 71.55%
Kd ([5]; EXPERIMENT 1, read-out: Kd): 37 µM
Percent bound at 1.87 μM 16742 conc ([5]; EXPERIMENT 2): 8.24%
Percent bound at 8.74 μM 16742 conc ([5]; EXPERIMENT 2): 11.86%
Percent bound at 52 μM 16742 conc ([5]; EXPERIMENT 2): 65.82%
Kd ([5]; EXPERIMENT 2, read-out: Kd): 33.9 µM
Kd ([5]; read-out: Kd Avg): 35.4 µM
